Reference: patent EP4786466A1, “QUINAZOLINE DERIVATIVE, SALT THEREOF, AND PHARMACEUTICAL COMPOSITION COMPRISING SAME AS ACTIVE INGREDIENT” (Korea Research Institute of Chemical Technology, priority 2023, dated 2025)
Where two headings read alike, the source gives them in different places.

Tests used:
[1] = target: T1, Recombinant GST-TAG-MASTL (Homo sapiens, UniProt Q96GX5); assay: HTRF-based kinase assay (HTRF KinEASE assay kit); type: biochemical; conditions: for activity at 1 µM: read-out: MASTL activity (%) HTRF (1 µM)
T1 construct: GST; purchased Thermo Fisher Scientific
T1 sequence (Q96GX5 1-879): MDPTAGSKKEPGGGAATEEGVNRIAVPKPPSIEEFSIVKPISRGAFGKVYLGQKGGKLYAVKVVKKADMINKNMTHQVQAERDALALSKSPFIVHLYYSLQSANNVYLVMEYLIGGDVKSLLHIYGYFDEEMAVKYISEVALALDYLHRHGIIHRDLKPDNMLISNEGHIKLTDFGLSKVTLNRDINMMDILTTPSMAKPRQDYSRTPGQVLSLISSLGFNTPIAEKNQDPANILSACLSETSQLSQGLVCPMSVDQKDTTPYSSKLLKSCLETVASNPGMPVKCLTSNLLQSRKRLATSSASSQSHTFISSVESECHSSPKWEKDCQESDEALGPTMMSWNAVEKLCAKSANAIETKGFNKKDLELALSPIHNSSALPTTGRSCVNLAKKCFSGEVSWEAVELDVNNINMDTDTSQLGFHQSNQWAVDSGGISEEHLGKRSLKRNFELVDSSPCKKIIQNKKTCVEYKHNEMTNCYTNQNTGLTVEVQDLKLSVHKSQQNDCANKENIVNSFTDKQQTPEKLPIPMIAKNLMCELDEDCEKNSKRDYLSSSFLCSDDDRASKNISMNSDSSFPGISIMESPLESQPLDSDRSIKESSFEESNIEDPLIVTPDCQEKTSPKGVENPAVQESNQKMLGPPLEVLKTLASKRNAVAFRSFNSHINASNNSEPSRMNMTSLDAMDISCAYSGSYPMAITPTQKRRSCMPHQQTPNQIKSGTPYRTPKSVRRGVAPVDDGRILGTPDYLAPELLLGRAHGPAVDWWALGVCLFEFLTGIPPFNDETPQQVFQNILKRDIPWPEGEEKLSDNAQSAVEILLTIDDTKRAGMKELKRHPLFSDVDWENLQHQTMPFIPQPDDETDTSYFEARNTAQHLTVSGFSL
From the text: Recombinant GST-TAG-MASTL (Thermo Fisher Scientific, MA, USA) was used for HTRF-based kinase assays. The HTRF KinEASE assay kit (CisBio, MA, USA) was used according to the manufacturer's instructions.

[2] = tested on: MCF7 breast cancer cell lines; assay: Cell viability analysis, WST-8 assay, MCF7; conditions: Homo sapiens, MCF7, 72 h; for viability at 1 µM: read-out: Cell viability (%) WST-8, MCF7 (1 µM), compound 1 µM, 72 hours
Method: (§1) MCF7 breast cancer cell lines and MCF10A normal breast cancer cell lines were treated with serial dilutions of the compounds of the present invention ranging from 1 µM to 15.63 nM for 72 hours. Cell viability was measured by the WST-8 assay (Cyto XTM cell viability assay kit; LPS solution, Daejeon, Korea) according to the manufacturer's instructions.

[3] = tested on: pENSA; assay: pENSA level by immunofluorescence (described method: in vitro kinase analysis with GST-tag-MASTL and His-tag-ENSA); type: cell-based; conditions: for pENSA (%) Immunofluor ecense (1 µM): compound 1 µM
Method: Two recombinant GST-tag-MASTL (Thermo Fisher Scientific) and His-tag-ENSA (Sino Biological Inc., Beijing, China) were used for in vitro kinase analysis. In vitro kinase analysis was performed as described in the literature [Front Oncol 2020, 10, 571601, 39-202021-10-20doi:10.3389/fonc.2020.571601.].
Phosphorylated ENSA (pENSA), which is activated by phosphorylation by MASTL, can be utilized as a biomarker as it is expected that its activity will be inhibited along with the inhibition of MASTL. In the cell viability assay, MCF7 refers to a breast cancer cell line, and MCF10A refers to a normal breast […] cell line.

[4] = in vitro; conditions: human
Method: as §1

[5] = HTRF, read-out: IC50(nM) MASTL activity

SMILES | viability at 1 µM [2] [%] | pENSA (%) Immunofluor ecense (1 µM) [3] [%] | viability at 1 µM ([4]; mcf10a cells) [%] | activity at 1 µM ([1]; compound 1 µM) [%] | also measured
NCCCCNC(=O)c1ccc(Nc2nc(Nc3cc(C4CC4)[nH]n3)c3ccccc3n2)cc1 [4ac, M-(4-aminobutyl)-4-((4-((5-cyclopropyl-1G-pyrazol-3-yl)amino)quinazolin-2-yl)amino)benzamide.trifluoroacetic acid] | 104 | 149 | 102 |  | activity at 1 µM [1]: 58.3%
CC(C)(C)OC(=O)NCCCNC(=O)c1ccc(Nc2nc(Nc3cc(C4CC4)[nH]n3)c3ccccc3n2)cc1 [4x, sdqs-butyl (3-(4-((4-((5-cyclopropyl-1G-pyrazol-3-yl)amino)quinazolin-2-yl)amino)benzamido)propyl)carbamate] | 75.8 | 185 | 80 | 70.8 | 
CC(C)(C)OC(=O)NCCCCNC(=O)c1ccc(Nc2nc(Nc3cc(C4CC4)[nH]n3)c3ccccc3n2)cc1 [4y, sdqs-butyl (4-(4-((4-((5-cyclopropyl-1G-pyrazol-3-yl)amino)quinazolin-2-yl)amino)benzamido)butyl)carbamate] | 78.7 | 164 | 80.2 | 75.3 | 
CC(C)(C)OC(=O)NCCCCCNC(=O)c1ccc(Nc2nc(Nc3cc(C4CC4)[nH]n3)c3ccccc3n2)cc1 [4z, sdqs-butyl (5-(4-((4-((5-cyclopropyl-1G-pyrazol-3-yl)amino)quinazolin-2-yl)amino)benzamido)pentyl)carbamate] | 86.3 | 188 | 77.7 | 85.3 | 
CC(C)(C)OC(=O)N1CCC2(CC1)CN(c1nc(Nc3cc(C4CC4)[nH]n3)c3ccccc3n1)C2 [6d, sdqs-butyl 2-(4-((5-cyclopropyl-1G-pyrazol-3-yl)amino)quinazolin-2-yl)-2,7-diazaspiro[3.5]nonane-7-carboxylate] | 88.6 | 96.4 | 104 | 48 | 
CC(C)(C)OC(=O)N1C2CCC1CN(c1nc(Nc3cc(C4CC4)[nH]n3)c3ccccc3n1)C2 [19' (B), sdqs-butyl 3-(4-((5-cyclopropyl-1G-pyrazol-3-yl)amino)quinazolin-2-yl)-3,8-diazabicyclo[3.2.1]octane-8-carboxylate] | 74.8 | 74.7 | 101 | 32.2 | IC50 [1, 5]: 282 nM
Clc1nc(Nc2cc(C3CC3)[nH]n2)c2ccccc2n1 [compound 2a, 2-chloro-M-(5-cyclopropyl-1G-pyrazol-3-yl)quinazolin-4-amine] | 106 | 105 | 93.3 | 73.4 | 
CC(C)(C)OC(=O)Nc1cccc(Nc2nc(Nc3ccc(CC#N)cc3)nc3ccccc23)c1 [compound 3m, sdqs-butyl (3-((2-((4-(cyanomethyl)phenyl)amino)quinazolin-4-yl)amino)phenyl)carbamate] | 116 | 85 | 91.7 | 117 | 
Brc1ccc(Nc2nc(Nc3cc(C4CC4)[nH]n3)c3ccccc3n2)cc1 [compound 4b, M^2-(4-bromophenyl)-M^4-(5-cyclopropyl-1G-pyrazol-3-yl)quinazoline-2,4-diamine] | 47.7 | 82 | 68.2 | 43.2 | IC50 ([1]; HTRF, unit µM, read-out: IC50 MASTL activity): 1400 nM; IC50 ([3]; unit µM, read-out: IC50 pENSA): 1.1 µM
Fc1cc(Br)ccc1Nc1nc(Nc2cc(C3CC3)[nH]n2)c2ccccc2n1 [compound 4c, M^2-(4-bromo-2-fluorophenyl)-M^4-(5-cyclopropyl-1G-pyrazol-3-yl)quinazoline-2,4-diamine] | 50.8 | 69 | 83.3 | 47.1 | IC50 ([3]; read-out: IC50(nM) pENSA): 0.85 µM
c1ccc2c(Nc3cc(C4CC4)[nH]n3)nc(Nc3ccc4cn[nH]c4c3)nc2c1 [compound 4de, N^4-(5-cyclopropyl-1H-pyrazol-3-yl)-N^2-(1H-indazol-6-yl)quinazoline-2,4-diamine] | 44.2 |  |  | 31.8 | viability at 1 µM [4]: 24%
c1ccc2c(Nc3cc(C4CC4)n[nH]3)nc(Nc3ccc4nc[nH]c4c3)nc2c1 [compound 4df, N^2-(1H-benzo[d]imidazol-5-yl)-N^4-(5-cyclopropyl-1H-pyrazol-3-yl)quinazoline-2,4-diamine] | 78.4 |  |  | 31.8 | viability at 1 µM [4]: 4.8%
c1ccc2c(Nc3cc(C4CC4)[nH]n3)nc(Nc3cnc4[nH]ccc4c3)nc2c1 [compound 4dg, N^4-(5-cyclopropyl-1H-pyrazol-3-yl)-N^2-(1H-pyrrolo[2,3-b]pyridin-5-yl)quinazoline-2,4-diamine] | 49 |  |  | 37.9 | viability at 1 µM [4]: 12%
c1ccc2c(Nc3cc(C4CC4)[nH]n3)nc(Nc3cnc4cccnn34)nc2c1 [compound 4dh, N^4-(5-cyclopropyl-1H-pyrazol-3-yl)-N^2-(imidazo[1,2-b]pyridazin-3-yl)quinazoline-2,4-diamine] | 116 |  |  | 88.7 | viability at 1 µM [4]: 111%
O=C1Cc2cc(Nc3nc(Nc4cc(C5CC5)[nH]n4)c4ccccc4n3)ccc2N1 [compound 4di, 5-((4-((5-cyclopropyl-1G-pyrazol-3-yl)amino)quinazolin-2-yl)amino)indolin-2-one] | 55.4 | 51.1 | 12.1 | 38.8 | 
c1ccc2c(Nc3cc(C4CC4)[nH]n3)nc(Nc3ccc(Cc4nnn[nH]4)cc3)nc2c1 [compound 4e, M^2-(4-((1G-tetrazol-5-yl)methyl)phenyl)-M^4-(5-cyclopropyl-1G-pyrazol-3-yl)quinazoline-2,4-diamine] |  | 90.7 |  |  | IC50 [1, 5]: 164 nM; activity at 10 µM ([1]; footnote b: concentration 10 µM, read-out: MASTL activity (%) HTRF): 15.1%; viability at 1.25 µM ([2]; read-out: Cell viability (%) WST-8, MCF7, footnote a: concentration 1.25 µM, 72 hours): 112%; viability at 1.25 µM ([4]; mcf10a cells): 110%
N#CCc1ccc(C2=CCN(c3nc(Nc4cc(C5CC5)[nH]n4)c4ccccc4n3)CC2)cc1F [compound 6n, 2-(4-(1-(4-((5-cyclopropyl-1G-pyrazol-3-yl)amino)quinazolin-2-yl)-1,2,3,6-tetrahydropyridin-4-yl)-2-fluorophenyl)acetonitrile] | 110 |  | 116 |  | IC50 [1]: 121 nM; activity at 1 µM [1]: 30.8%
N#Cc1cc(Cl)ccc1C1=CCN(c2nc(Nc3cc(C4CC4)[nH]n3)c3ccccc3n2)CC1 [compound 6o, 5-chloro-2-(1-(4-((5-cyclopropyl-1G-pyrazol-3-yl)amino)quinazolin-2-yl)-1,2,3,6-tetrahydropyridin-4-yl)benzonitrile] | 48.4 |  | 24.9 |  | activity at 1 µM [1]: 61.2%
N#Cc1ccccc1S(=O)(=O)N1CC2CC1CN2c1nc(Nc2cc(C3CC3)[nH]n2)c2ccccc2n1 (stereo not shown) [compound 15v, 2-((5-(4-((5-cyclopropyl-1G-pyrazol-3-yl)amino)quinazolin-2-yl)-2,5-diazabicyclo[2.2.1]heptan-2-yl)sulfonyl)benzonitrile] | 80.5 |  | 81.8 |  | IC50 [1]: 52.7 nM; activity at 1 µM [1]: 29.5%
O=C1CSC(Nc2nc(Nc3ccccc3)nc3ccccc23)=N1 [compound 26b, 2-((2-(phenylamino)quinazolin-4-yl)amino)thiazol-4(5H)-one] | 95.8 |  |  | 112 | viability at 1 µM [4]: 98.8%
